# Measurements published in article PMC11945486, “TAS1R2/TAS1R3 Single-Nucleotide Polymorphisms Affect Sweet Taste Receptor Activation by Sweeteners: The SWEET Project” (Nutrients, 2025).
# Biological target: T1, human TAS1R2-A574T (subunit alone) (Homo sapiens, UniProt Q8TE23, A574T)
# T1 construct: expressed in transfected cells; host or cells: HEK293T-Gα16gust44
# T1 sequence (Q8TE23 20-839 A574T): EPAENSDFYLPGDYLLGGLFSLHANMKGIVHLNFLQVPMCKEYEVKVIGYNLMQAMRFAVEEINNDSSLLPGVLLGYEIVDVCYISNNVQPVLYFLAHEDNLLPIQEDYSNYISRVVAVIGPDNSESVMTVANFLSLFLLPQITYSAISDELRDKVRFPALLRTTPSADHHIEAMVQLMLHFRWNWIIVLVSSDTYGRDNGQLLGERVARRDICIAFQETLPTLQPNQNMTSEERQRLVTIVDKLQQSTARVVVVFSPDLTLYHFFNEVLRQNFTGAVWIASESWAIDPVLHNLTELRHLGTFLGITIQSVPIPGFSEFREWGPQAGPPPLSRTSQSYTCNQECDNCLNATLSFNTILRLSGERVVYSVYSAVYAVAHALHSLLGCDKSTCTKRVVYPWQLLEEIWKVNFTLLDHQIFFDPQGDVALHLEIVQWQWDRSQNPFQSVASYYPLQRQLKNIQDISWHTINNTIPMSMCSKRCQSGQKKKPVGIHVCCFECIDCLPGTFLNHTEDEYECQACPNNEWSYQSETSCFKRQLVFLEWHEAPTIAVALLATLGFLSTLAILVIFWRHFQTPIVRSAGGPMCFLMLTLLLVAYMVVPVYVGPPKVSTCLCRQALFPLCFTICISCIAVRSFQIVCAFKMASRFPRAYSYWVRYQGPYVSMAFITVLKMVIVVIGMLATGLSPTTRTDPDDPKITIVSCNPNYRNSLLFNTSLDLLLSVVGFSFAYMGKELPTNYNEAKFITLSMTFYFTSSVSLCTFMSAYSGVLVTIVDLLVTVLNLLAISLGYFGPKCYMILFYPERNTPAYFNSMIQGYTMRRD
# Assay: Calcium mobilisation assay, TAS1R2-A574T subunit alone
# Type: cell-based
# Source text: The coding sequences for TAS1R2 and TAS1R3 were commercially synthesised, and the human codon was optimised for expression in human cells. The coding sequences of human TAS1R2 and TAS1R3 were subcloned and inserted into the mammalian expression vectors pcDNA6/myc-HisA and pcDNA4/myc-HisA (Invitrogen; Thermo Fisher Scientific; Illkirch, France) between the EcoRI and NotI restriction sites, generating the plasmids pcDNA6-TAS1R2 and pcDNA4-TAS1R3, respectively. To increase protein expression in mammalian cells, an upstream start codon was used, which was a sequence called MAX, corresponding to the QBI SP163 element also described in pcDNA4-HisMax (Invitrogen; Thermo Fisher Scientific; Illkirch, France). To measure the expression level of the receptor by immunohistochemistry, we used the FLAG sequence ([…]) in the C-terminal position, which encodes the FLAG tag epitope. […]
# The HEK293T cells were kindly provided by Jay P. Slack (Givaudan Flavors Corporation; Cincinnati, OH, USA). […] The fluorescence intensity was measured for 90 s (excitation 488 nm, emission 510 nm) in an automated fluorometric FlexStation®3 Multi-Mode microplate reader (Molecular Devices; San Jose, CA, USA). […] The Ca^2+ changes were expressed as fractional changes in fluorescent light intensity: ΔF/F = (F − F0)/F0, where F was the fluorescent light intensity at each point, and F0 was the value of emitted fluorescent light prior to stimulus application. To calculate dose–response relationships, the changes in fluorescence upon stimulus application were averaged, mock-subtracted and baseline-corrected. […] The half-maximal effective concentrations (EC50 values) and maximal signal amplitudes were calculated using SigmaPlot software (version 15.0) (Systat Software; San Jose, CA, USA).
# For in vitro calcium mobilisation assay performed on hTAS1R2-SNPs, hTAS1R3-SNPs and mTAS1R3-I60T, 6 to 7 concentrations were tested for each sweet compound, plus buffer alone. All concentration–receptor combinations were measured in duplicate, and each experiment was repeated at least 4 times (8 wells/concentration). […]
smiles,measurement,setting,value
"C=C(C)[C@@H]1CC=C(/C=N/O)CC1 [Perillartine, perillartine]",EC50,,85.3 ± 12.4 µM
same,R1 = Variant EC50/WT EC50,,0.9
same,Max ΔF/F0,maximal signal amplitude,0.25 ± 0.01
